Values after ≈ are worked out from the molar mass of the structure shown.
Key:
[1] = test system: A. terreus sensu stricto isolates; test: AMB MIC (EUCAST) of isolates used for time-kill; assay type: cell-based; settings: Aspergillus terreus
Description: Materials & Methods: Tolerance is the ability of a “susceptible isolate” to grow in the presence of AMB above the MIC; tolerant fungi are characterized by a longer minimum duration of killing time (MDK) than susceptible isolates. We investigated AMB-MDKs of A. terreus sensu stricto isolates (n = 4) representing susceptible (S < […]) and resistant (R > […]) phenotypes (EUCAST). Time-kill curve analysis (99% killing of the initial population) was performed in RPMI 1640 and AM3 media at different AMB concentrations, and in parallel, the germination rate was determined microscopically.

C. auris = test: EUCAST EDef 7.3.1 MIC and checkerboard microdilution; assay type: cell-based, Candida auris
Description: Methods: We studied 22 C. auris isolates obtained from different clinical samples from the Hospital La Fe, Valencia, Spain (eight from blood culture, seven from oropharynx and seven from urine cultures). Candida parapsilosis ATCC 22019 and Candida krusei ATCC 6258 were used as quality controls. The minimum inhibitory concentration (MIC) was determined according to the European Committee on Antibiotic Susceptibility Testing (EUCAST) EDef 7.3.1 document. The interaction between citral and the rest of antifungal drugs was assessed by a checkerboard microdilution method. […] The in vitro interaction of the drug combinations was interpreted in terms of the fractional inhibitory concentration index (FICI) as follows: FICI < 1, synergistic; FICI equal to 1, additive; and FICI > 1, indifferent or antagonistic.

[2] = test system: Cryptococcus neoformans var grubii; test: microbe, parasite or virus in culture; assay type: cell-based; settings: read-out: Minimal Inhibitory Concentration (MIC)
C. blankii = test: Vitek 2 fungal susceptibility card; assay type: cell-based, Candida blankii
Candida non-albicans = test: In vitro fluconazole susceptibility, neonatal invasive candidiasis; assay type: cell-based
[3] = test system: CgCDR1, CgCDR2 and CgSNQ2 genes; test: Real-time PCR of ATP-binding cassette transporter genes; assay type: cell-based, Candida glabrata
[4] = test system: C. albicans SC5314 experimental population; test: Experimental evolution under fluconazole, azole susceptibility; assay type: cell-based; settings: Candida albicans
[5] = test system: Candida albicans and C. glabrata; assay type: cell-based, Candida spp.; settings: 20 women with RVVC
Sporothrix brasiliensis = test: Murine subcutaneous sporotrichosis model; assay type: in vivo, Balb/c mice; settings: oral gavage once a day, 30 days; ITZ 50 mg/kg; DD 1, 5 or 10 mg/kg
Description: Materials & Methods: 50 Balb/c mice, male, five to seven-week-old, were subcutaneous infected (left footpad) by a clinical isolate of S. brasiliensis (5.4 × 10^7 yeast/mice). Treatments started seven days post-inoculation (p.i) in all five groups (10 mice/each): G1 control group (placebo—receiving just the diluent of the drugs), G2 treatment group (itraconazole—ITZ 50 mg/kg); G3 to G5 DD treatment groups, 1, 5 and 10 mg/kg, respectively. All mice were treated once a day by oral gavage, for 30 consecutive days. Physical conditions and behavior were daily evaluated, and individual weight was weekly determined. At the 32nd day p.i. (48 h after the end of the treatments) animals were euthanasied and lung, liver, brain, kidneys, testicle and footpad were recovered aseptically and homogenized to mycological analysis. Fungal burden in each organ was measured by quantitatively counting colony-forming units (CFU). The determination of colony forming units (CFU)/gram of tissue (g) of S. brasiliensis in internal organs of groups were compared by non-parametric tests using Kruskal-Wallis combined with Wilcoxon. The weight loss assay was calculated considering the percentage of loss and/or increase between the value corresponding to the fungal inoculation day and to the end of the treatment.

[6] = Voriconazole level monitoring with flucloxacillin co-administration; assay type: in vivo, human
From the text: Methods: Synoptic description of a significant interaction in 2 critically ill patients and analysis of interaction screening in validated data bases.

[7] = test system: Fusarium solani (FS) mature biofilms; test: XTT biofilm damage assay; assay type: cell-based
Description: (§1) Materials & Methods: 10^5 cfu/mL of FS (n = 3) and SA (n = 3) BF-producing strains were incubated in RPMI at 37 °C for 48 h. PMN were isolated from healthy volunteers by dextran sedimentation/ficoll centrifugation. BF were incubated with PMN at effector-to-target ratio 5:1 alone or in combination with L-AMB (FS: 0.25/2/32 mg/L; SA: 0.25/1/16 mg/L) or VRC (FS: 8/64 mg/L; SA: 0.5/32 mg/L) at 37 °C/5% CO2 for 24 h. Antifungal activity was assessed by XTT reduction assay of metabolic activity. […] The % damage of the PMN+drug treatment was compared to that of PMN or drug alone by ANOVA (n = 8, p < 0.05).

[8] = test system: Scedosporium apiospermum (SA) mature biofilms; test: XTT biofilm damage assay; assay type: cell-based
Description: as §1

[9] = test system: S. apiospermum (SA) biofilms; test: Mature biofilm damage, XTT metabolic reduction assay; settings: Scedosporium apiospermum, 24 h, read-out: BF MIC50
Asp. flavus = test: Triazole resistance agar screening, four-well plate; settings: RPMI agar, 1 µg/mL, 29 isolates
Description: (§2) All the isolates were identified phenotypically. […] Fungal spores were suspended in normal saline (0.85%) and adjusted to 0.5 McFarland and 50 μL was plated in each well. […] Plates were incubated at 35–37 °C for 72 h in ambient air. The presence or absence of growth was observed visually at 24 h, 48 h, and 72 h.

Asp. fumigatus = test: as above; settings: RPMI agar, 1 µg/mL, 7 isolates
Description: as §2

For `C[C@@H]1[C@H](O)[C@@H](C)/C=C/C=C/C=C/C=C/C=C/C=C/C=C/[C@H](O[C@@H]2O[C@H](C)[C@@H](O)[C@H](N)[C@@H]2O)C[C@@H]2O[C@](O)(C[C@@H](O)C[C@@H](O)[C@H](O)CC[C@@H](O)C[C@@H](O)CC(=O)O[C@H]1C)C[C@H](O)[C@H]2C(=O)O` [amphotericin B], the MIC ([1]; A. terreus 81 and 31, each) was 1 µg/mL (≈ 1.08 µM), the MIC ([1]; A. terreus 134) was 4 µg/mL (≈ 4.33 µM) and the MIC ([1]; A. terreus 164) was 0.5 µg/mL (≈ 0.541 µM). For the same compound, the “MIC of amphotericin B in combination with citral” value (C. auris) was 0.016 µg/mL and the MIC (C. auris; Candidozyma auris, 22 clinical isolates) was 0.25 µg/mL.

In the case of `OC(Cn1cncn1)(Cn1cncn1)c1ccc(F)cc1F` [fluconazole], the MIC [2] is reported as > 32 µg/mL, the susceptibility (C. blankii) is reported as “resistant” and the dose-dependent susceptible pathogens (Candida non-albicans) is reported as 6%. The “in vitro resistant pathogens” value (Candida non-albicans) was 6%, the “expression of CgCDR1, CgCDR2 and CgSNQ2 genes” value [3] was “over-expressed” and the MIC ([4]; SC5314) was 0.5 µg/mL (≈ 1.63 µM). For the same compound, the MIC ([4]; SC5314, 168 h) was 8 µg/mL (≈ 26.1 µM), the “in vitro resistant pathogens” value [5] was 45% and the “increase of clearance per 100 g increase in actual bodyweight” value (in vivo) was 16%. The “decrease of clearance per 10 µmol/L increase in creatinine concentration” value (once postnatal age was above 1 week) was 12%, the volume of distribution (one-compartment model, typical infant of 0.87 kg) was 0.844 L and the estimated clearance (one-compartment model, typical infant of 0.87 kg, serum creatinine 60 µmol/L, 41 preterm neonates, 146 plasma samples) was 0.0147 L/h.

In the case of `CCC(C)n1ncn(-c2ccc(N3CCN(c4ccc(OCC5COC(Cn6cncn6)(c6ccc(Cl)cc6Cl)O5)cc4)CC3)cc2)c1=O` (stereo not drawn) [itraconazole], the “fungal burden of internal organs vs placebo group” value (Sporothrix brasiliensis) is reported as “lower fungal burden”.

With `C[C@@H](c1ncncc1F)[C@](O)(Cn1cncn1)c1ccc(F)cc1F` [voriconazole] the voriconazole level ([6]; Case 1, 2 days after flucloxacillin interruption, 8 mg/kg bid) was < 0.2 µg/mL, the voriconazole level ([6]; Case 1, day 10 of combination with high dose flucloxacillin, 4 mg/kg bid) was < 0.2 µg/mL and the voriconazole level ([6]; Case 1, subsequently after 3 days) was 3 µg/mL. For the same compound, the voriconazole level ([6]; Case 2, after flucloxacillin stop and dose increase to 6 mg/kg bid) was 4.2 µg/mL, the voriconazole level ([6]; Case 2, before flucloxacillin) was 3.5 µg/mL and the voriconazole level ([6]; Case 2, during high dose flucloxacillin, two levels) was < 0.5 µg/mL. The voriconazole level ([6]; Case 2, further increase, toxic level) was 15.1 µg/mL, the voriconazole level ([6]; Case 2, intravenous maintenance 4 mg/kg bid) was 3.2 µg/mL and the MIC50 ([7]; Fusarium solani, read-out: BF MIC50 (≥50% BF damage), XTT, 24 h, 37 °C) was > 256 µg/mL. The “interaction of drug+PMN vs drug alone” value ([7]; VRC 64 mg/L, PMN 5:1) was “antagonism”, the MIC50 ([8]; Scedosporium apiospermum, read-out: BF MIC50 (≥50% BF damage), XTT, 24 h, 37 °C) was 32 µg/mL and the BF damage ([8]; VRC 32 mg/L + PMN 5:1) was 69.5 ± 3%. For the same compound, the BF damage ([8]; VRC 32 mg/L alone) was 61 ± 4%, the MIC50 [9] was 32 µg/mL (≈ 91.6 µM) and the “isolates with growth only in voriconazole well, n (%)” value (“isolates with growth only … (%)” for short) (Asp. flavus; 48 h) was 1 (3.44%). The “isolates with growth only … (%)” value (Asp. flavus; 72 h) was 11 (37.93%), the “isolates with growth only … (%)” value (Asp. fumigatus; 48 h) was 0 and the “isolates with growth only … (%)” value (Asp. fumigatus; 72 h) was 3 (42.85).
